*1 amine or outer side, *2 acyl side, *3 side chain or, on linkers, in order; H or OH if unused. Where a SMILES comes first, the peptide text is derived from it. Bridges are numbered along the chain shown (N, C = ends). [ ]: non-standard residue; d: D form. Abu(4-yl) = O=C([C@H](CC[*:3])N[*:1])[*:2]; 2Nal = N[C@@H](Cc1ccc2ccccc2c1)C(=O)O; AEF = NCCOc1ccc(C[C@H](N)C(=O)O)cc1; αMeL = CC(C)C[C@](C)(N)C(=O)O
Key:
Interleukin-23 receptor [1] = biological target: T1, Interleukin-23 receptor (Homo sapiens, UniProt Q5VWK5); assay: Inhibition of interleukin-23 receptor in human DB cells assessed as reduction in IL-23-stimulated STAT3 phosphorylation incubated for 30 mins by HTRF assay; type: cell-based
T1 sequence (Q5VWK5 whole entry): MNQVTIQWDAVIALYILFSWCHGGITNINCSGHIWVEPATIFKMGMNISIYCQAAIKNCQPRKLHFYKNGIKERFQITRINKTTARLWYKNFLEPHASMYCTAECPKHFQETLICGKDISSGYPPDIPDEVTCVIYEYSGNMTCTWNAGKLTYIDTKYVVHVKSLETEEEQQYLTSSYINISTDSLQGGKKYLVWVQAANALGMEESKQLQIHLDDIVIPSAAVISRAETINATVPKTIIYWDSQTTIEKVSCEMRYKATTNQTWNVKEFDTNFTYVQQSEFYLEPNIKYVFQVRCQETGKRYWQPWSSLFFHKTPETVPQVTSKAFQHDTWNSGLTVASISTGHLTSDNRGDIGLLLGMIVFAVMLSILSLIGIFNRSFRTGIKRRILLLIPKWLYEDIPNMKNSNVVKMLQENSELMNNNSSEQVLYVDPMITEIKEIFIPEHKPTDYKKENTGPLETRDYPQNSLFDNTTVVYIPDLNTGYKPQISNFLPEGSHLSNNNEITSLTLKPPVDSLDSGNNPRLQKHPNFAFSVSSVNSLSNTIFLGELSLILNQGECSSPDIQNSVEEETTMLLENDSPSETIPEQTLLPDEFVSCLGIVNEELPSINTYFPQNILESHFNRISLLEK

[2] = Half life in simulated intestinal fluid at 20 uM by LC-MS/MS analysis; type: ADME
[3] = Inhibition of interleukin-23 binding to rat interleukin-23 receptor incubated for 2 hrs by competitive binding ELISA
[4] = Half life in simulated gastric fluid at 20 uM by LC-MS/MS analysis; type: ADME
Interleukin-23 receptor [5] = biological target: T1, Interleukin-23 receptor; assay: Inhibition of interleukin-23 binding to human interleukin-23 receptor incubated for 2 hrs by competitive binding ELISA

| IC50 (Interleukin-23 receptor [1]) | half-life at 20 µM [2] | IC50 [3] | half-life at 20 µM [4] | IC50 (Interleukin-23 receptor [5]) | SMILES |
| --- | --- | --- | --- | --- | --- |
| < 10 nM | > 6 h | 25 to 100 nM | > 6 h | < 10 nM | CC(=O)N[C@H](C(=O)N[C@@H](CCC(N)=O)C(=O)N[C@H](C(=O)N[C@@H](Cc1c[nH]c2ccccc12)C(=O)N[C@@H](CCC(N)=O)C(=O)N[C@H](C(=O)N[C@@H](Cc1ccc(OCCN)cc1)C(=O)N[C@@H](Cc1ccc2ccccc2c1)C(=O)N[C@@](C)(CCCCN)C(=O)N[C@@H](CCC(=O)O)C(=O)N[C@@H](CC(N)=O)C(=O)N[C@@H](C)C(N)=O)C(C)(C)S)[C@@H](C)O)C(C)(C)S |
| < 10 nM | > 6 h | 10 to 25 nM | > 6 h | < 10 nM | CC(=O)NCCCC[C@H](NC(=O)[C@](C)(CCCCN)NC(=O)[C@H](Cc1ccc2ccccc2c1)NC(=O)[C@H](Cc1ccc(OCCN)cc1)NC(=O)[C@@H](NC(=O)[C@H](CCC(N)=O)NC(=O)[C@H](Cc1c[nH]c2ccccc12)NC(=O)[C@@H](NC(=O)[C@H](CCC(N)=O)NC(=O)[C@@H](NC(C)=O)C(C)(C)S)[C@@H](C)O)C(C)(C)S)C(=O)N[C@@H](CC(N)=O)C(=O)N[C@@H](CC(N)=O)C(N)=O |
| < 10 nM | > 6 h | < 10 nM | > 6 h | < 10 nM | CC(=O)NCCCC[C@H](NC(=O)[C@](C)(CCCCN)NC(=O)[C@H](Cc1ccc2ccccc2c1)NC(=O)[C@H](Cc1ccc(OCCN)cc1)NC(=O)[C@@H]1CSCC[C@H](NC(C)=O)C(=O)N[C@@H](CCC(N)=O)C(=O)N[C@@H]([C@@H](C)O)C(=O)N[C@@H](Cc2c[nH]c3ccccc23)C(=O)N[C@@H](CCC(N)=O)C(=O)N1)C(=O)N[C@@H](CC(N)=O)C(=O)NCC(N)=O |
| < 10 nM | 3 to 6 h | 10 to 25 nM | < 1 h | < 10 nM | COc1ccc(C[C@H](NC(=O)[C@@H]2CSCC[C@H](NC(C)=O)C(=O)N[C@@H](CCC(N)=O)C(=O)N[C@@H]([C@@H](C)O)C(=O)N[C@@H](Cc3c[nH]c4ccccc34)C(=O)N[C@@H](CCC(N)=O)C(=O)N2)C(=O)N[C@@H](Cc2ccc3ccccc3c2)C(=O)N[C@@](C)(CCCCN)C(=O)N[C@@H](CCCCNC(C)=O)C(=O)N[C@@H](CC(N)=O)C(=O)NCC(N)=O)cc1 |
| < 10 nM | > 6 h | < 10 nM | 2 to 3 h | < 10 nM | CC(=O)N[C@@H](CCC(=O)O)C(=O)N[C@H]1CCSC[C@@H](C(=O)N[C@@H](Cc2ccc(OCCN)cc2)C(=O)N[C@@H](Cc2ccc3ccccc3c2)C(=O)N[C@@](C)(CCCCN)C(=O)N[C@@H](CCC(=O)O)C(=O)N[C@@H](CC(N)=O)C(=O)N[C@@H](CC(N)=O)C(N)=O)NC(=O)[C@H](CCC(N)=O)NC(=O)[C@H](Cc2c[nH]c3ccccc23)NC(=O)[C@H]([C@@H](C)O)NC(=O)[C@H](CCC(N)=O)NC1=O |
| < 10 nM | 2 to 3 h | < 10 nM | < 1 h | < 10 nM | CC(=O)NCCCC[C@H](NC(=O)[C@](C)(CC(C)C)NC(=O)[C@H](Cc1ccc2ccccc2c1)NC(=O)[C@H](Cc1ccc(OCCN)cc1)NC(=O)[C@@H]1CSCC[C@H](NC(C)=O)C(=O)N[C@@H](CCC(N)=O)C(=O)N[C@@H]([C@@H](C)O)C(=O)N[C@@H](Cc2c[nH]c3ccccc23)C(=O)N[C@@H](CCC(N)=O)C(=O)N1)C(=O)N[C@@H](CC(N)=O)C(=O)N[C@@H](CC(N)=O)C(N)=O (Ac-[Abu(4-yl)]QTWQC[AEF][2Nal][αMeL]K(Ac)NN-NH2; thioether 1-6) |
| < 10 nM | > 6 h | 25 to 100 nM | > 6 h | 25 to 100 nM | COc1ccc(C[C@H](NC(=O)[C@@H](NC(=O)[C@H](CCC(N)=O)NC(=O)[C@H](Cc2c[nH]c3ccccc23)NC(=O)[C@@H](NC(=O)[C@H](CCC(N)=O)NC(=O)[C@@H](NC(C)=O)C(C)(C)S)[C@@H](C)O)C(C)(C)S)C(=O)N[C@@H](Cc2ccc3ccccc3c2)C(=O)N[C@@](C)(CCCCN)C(=O)N[C@@H](CCCCNC(C)=O)C(=O)N[C@@H](CC(N)=O)C(=O)NCC(N)=O)cc1 |
| < 10 nM | 2 to 3 h | 25 to 100 nM | < 1 h | 10 to 25 nM | COc1ccc(C[C@H](NC(=O)[C@@H]2CSCC[C@H](NC(C)=O)C(=O)N[C@@H](CCC(N)=O)C(=O)N[C@@H]([C@@H](C)O)C(=O)N[C@@H](Cc3c[nH]c4ccccc34)C(=O)N[C@@H](CCC(N)=O)C(=O)N2)C(=O)N[C@@H](Cc2ccc3ccccc3c2)C(=O)N[C@@](C)(CCCN)C(=O)N[C@@H](CCC(=O)O)C(=O)N[C@@H](CC(N)=O)C(=O)NCC(N)=O)cc1 |
| 10 to 25 nM | > 6 h | 25 to 100 nM | < 1 h | 10 to 25 nM | COc1ccc(C[C@H](NC(=O)[C@@H]2CSCC[C@H](NC(C)=O)C(=O)N[C@@H](CCC(N)=O)C(=O)N[C@@H]([C@@H](C)O)C(=O)N[C@@H](Cc3c[nH]c4ccccc34)C(=O)N[C@@H](CCC(N)=O)C(=O)N2)C(=O)N[C@@H](Cc2c[nH]c3ccccc23)C(=O)N[C@@](C)(CCCCN)C(=O)N[C@@H](CCC(=O)O)C(=O)N[C@@H](CC(N)=O)C(=O)NCC(N)=O)cc1 |
| 10 to 25 nM | > 6 h | 25 to 100 nM | < 1 h | 25 to 100 nM | COc1ccc(C[C@H](NC(=O)[C@@H]2CSCC[C@H](NC(C)=O)C(=O)N[C@@H](CCC(N)=O)C(=O)N[C@@H]([C@@H](C)O)C(=O)N[C@@H](Cc3c[nH]c4ccccc34)C(=O)N[C@@H](CCC(N)=O)C(=O)N2)C(=O)N[C@@H](Cc2cccc3ccccc23)C(=O)N[C@@](C)(CCCCN)C(=O)N[C@@H](CCCCNC(C)=O)C(=O)N[C@@H](CC(N)=O)C(=O)NCC(N)=O)cc1 |
| < 10 nM | > 6 h | < 10 nM | > 6 h | < 10 nM | CC(=O)N[C@H](C(=O)N[C@@H](CCC(N)=O)C(=O)N[C@H](C(=O)N[C@@H](Cc1c[nH]c2ccccc12)C(=O)N[C@@H](CCC(N)=O)C(=O)N[C@H](C(=O)N[C@@H](Cc1ccc(OCCN)cc1)C(=O)N[C@@H](Cc1ccc2ccccc2c1)C(=O)N[C@@](C)(CC(C)C)C(=O)N[C@@H](CCC(N)=O)C(=O)N[C@@H](CC(N)=O)C(=O)N[C@@H](CC(N)=O)C(N)=O)C(C)(C)S)[C@@H](C)O)C(C)(C)S |
| 25 to 100 nM | 3 to 6 h | 100 to 1000 nM | 2 to 3 h | 100 to 1000 nM | COc1ccc(C[C@H](NC(=O)[C@H]2NC(=O)[C@H](CCC(N)=O)NC(=O)[C@H](Cc3c[nH]c4ccccc34)NC(=O)[C@H]([C@@H](C)O)NC(=O)[C@H](CCC(N)=O)NC(=O)[C@@H](NC(C)=O)CCSC2(C)C)C(=O)N[C@@H](Cc2ccc3ccccc3c2)C(=O)N[C@@](C)(CCCCN)C(=O)N[C@@H](CCC(=O)O)C(=O)N[C@@H](CC(N)=O)C(=O)NCC(N)=O)cc1 |
| < 10 nM | > 6 h | 25 to 100 nM | 3 to 6 h | 25 to 100 nM | COc1ccc(C[C@H](NC(=O)[C@@H](NC(=O)[C@H](CCC(N)=O)NC(=O)[C@H](Cc2c[nH]c3ccccc23)NC(=O)[C@@H](NC(=O)[C@H](CCC(N)=O)NC(=O)[C@@H](NC(=O)[C@@H]2CCC(=O)N2)C(C)(C)S)[C@@H](C)O)C(C)(C)S)C(=O)N[C@@H](Cc2ccc3ccccc3c2)C(=O)N[C@@](C)(CCCCN)C(=O)N[C@@H](CCCCNC(C)=O)C(=O)N[C@@H](CC(N)=O)C(=O)NCC(N)=O)cc1 |
| < 10 nM | 1 to 2 h | < 10 nM | < 1 h | < 10 nM | CC(=O)NCCOc1ccc(C[C@H](NC(=O)[C@@H]2CSCC[C@H](NC(C)=O)C(=O)N[C@@H](CCC(N)=O)C(=O)N[C@@H]([C@@H](C)O)C(=O)N[C@@H](Cc3c[nH]c4ccccc34)C(=O)N[C@@H](CCC(N)=O)C(=O)N2)C(=O)N[C@@H](Cc2ccc3ccccc3c2)C(=O)N[C@@](C)(CCCCN)C(=O)N[C@@H](CCC(=O)O)C(=O)N[C@@H](CC(N)=O)C(=O)NCC(N)=O)cc1 |
| < 10 nM | 1 to 2 h | 25 to 100 nM | < 1 h | < 10 nM | COc1ccc(C[C@H](NC(=O)[C@@H]2CSCC[C@H](NC(=O)[C@@H](CCCCNC(=O)COCC(=O)NCCCC[C@@H](NC(C)=O)C(=O)N[C@H]3CCSC[C@@H](C(=O)N[C@@H](Cc4ccc(OC)cc4)C(=O)N[C@@H](Cc4ccc5ccccc5c4)C(=O)N[C@@](C)(CC(C)C)C(=O)N[C@@H](CCC(=O)O)C(=O)N[C@@H](CC(N)=O)C(=O)NCC(N)=O)NC(=O)[C@H](CCC(N)=O)NC(=O)[C@H](Cc4c[nH]c5ccccc45)NC(=O)[C@H]([C@@H](C)O)NC(=O)[C@H](CCC(N)=O)NC3=O)NC(C)=O)C(=O)N[C@@H](CCC(N)=O)C(=O)N[C@@H]([C@@H](C)O)C(=O)N[C@@H](Cc3c[nH]c4ccccc34)C(=O)N[C@@H](CCC(N)=O)C(=O)N2)C(=O)N[C@@H](Cc2ccc3ccccc3c2)C(=O)N[C@@](C)(CC(C)C)C(=O)N[C@@H](CCC(=O)O)C(=O)N[C@@H](CC(N)=O)C(=O)NCC(N)=O)cc1 |

Source: ChEMBL document CHEMBL4417631, “Oral peptide inhibitors of interleukin-23 receptor and their use to treat inflammatory bowel diseases” (2017)
